# In patent US8129532B2, “Amino(oligo)thiophene dyes, preparation thereof, and optical methods of use” (The University of Connecticut, priority 2007, dated 2012):
# What was measured:
# [1] = One-photon absorption and emission spectra in multilamellar lipid vesicles, water and ethanol; assay type: physicochemical
# Excerpt: […] The column indicating relative signal change for one-photon fluorescence also lists the excitation light source used and the lower bounds of the long-pass emission detected.
# Absorption and emission spectra were obtained for a series of dyes with different acceptors: pyridinium (PY-1261), quinolinium (PY-212), and acridinium (PY-2240).
# [2] = One-photon fluorescence relative signal change per 100 mV; conditions: excitation / long-pass emission (nm) given
# Excerpt: The left-most data columns of Table 1 are the absorption and emission maxima for one photon fluorescence in soybean multi-lamellar lipid vesicles used to mimic the membrane environment. The column indicating relative signal change for one-photon fluorescence also lists the excitation light source used and the lower bounds of the long-pass emission detected.
# dye-stained cells = assay: Confocal fluorescence intensity and bleaching of dye-stained cells; assay type: cell-based; conditions: compared with PY-1261
# [3] = system: layer V pyramidal neurons; assay: Voltage-sensitive dye imaging of action potentials in intracellularly stained pyramidal neurons in brain slices; assay type: cell-based, Sprague Dawley rats
# Excerpt: Sprague Dawley rats (P21-42) were anesthetized with isoflurane, decapitated, and the brains were removed with the head immersed in ice-cold, artificial cerebrospinal fluid (ACSF), according to an animal protocol approved by the Center for Laboratory Animal Care, University of Connecticut. Brain slices (300 μm) were cut from frontal lobes in the coronal plane. ACSF contained (in mM) 125 NaCl, 26 NaHCO3, 10 glucose, 2.3 KCl, 1.26 KH2PO4, 2 CaCl2 and 1 MgSO4, pH 7.4. Whole-cell recordings were made from visually identified layer V pyramidal neurons on the medial part of the slice. Intracellular solution contained (in mM) 135 K-gluconate, 2 MgCl2, 3 Na2-ATP, 10 Na2-phosphocreatine, 0.3 Na2-GTP and 10 Hepes (pH 7.3, adjusted with KOH). Electrical signals were amplified with Multiclamp 700A and digitized with two input boards: (1) Digidata Series 1322A (Axon Instruments) at 5 kHz, and (2) Neuroplex (RedShirtImaging) at 2.7 kHz sampling rate. Only cells with a membrane potential more hyperpolarized than −50 mV, and action potential amplitudes exceeding 80 mV (measured from the base line) were included in this study. All experiments were performed on layer 5 cortical pyramidal cells at 34° C.
# Blue dyes were stored in ethanol stock solution at −20° C. On the day of the recording blue dyes were dissolved in standard K-gluconate based intracellular solution. A loading pipette was filled with two varieties of the same intracellular solution; one with and one without dye. Dye-free solution was occupying the very tip of the pipette, while the back of the pipette lumen was microloaded with dye-rich solution. The purpose of dye-free solution in the tip of the patch pipette was to prevent dye-leak during the maneuver through brain slice tissue. VSD styryl dyes are lipophilic and bind indiscriminately and irreversibly to all membranes around the neuron of interest. Even a small amount of dye that leaks out of the pipette during the formation of the gigaohm seal, can generate strong fluorescent background. Fluorescent light emanating from surrounding tissue has a devastating effect on dendritic optical signals. Elimination of the background fluorescence is critical for dendritic voltage imaging. How much dye-free solution one should put in the tip depends on time period between the submersion of the patch pipette into the recording chamber and formation of the gigaohm seal. The faster one can perform this maneuver the less dye-free solution she needs to achieve optimal staining.
# Blue VSD were injected at room temperature for 25-60 minutes. The filling pipette was carefully pulled out (outside-out patch) and brain slices were left to incubate for 20-120 minutes at room temperature. Just before optical recordings the cells were re-patched with dye-free pipette at the physiological temperature (34° C.).
# Voltage-sensitive dye imaging was performed on a Zeiss Axioskope 2FS microscope equipped with NeuroCCD camera (RedShirtImaging). We used Zeiss 40× objective IR-Achroplan 0.80 W. The size of the square visual field captured by NeuroCCD camera was 384×384 um. In the place of the arc lamp (normally used for epi-illumination), we inserted a 200 μm fiber optic guide with a collimator. Laser beam was focused on the other side of the fiber optic guide using a microscope objective-like lens. This arrangement produced a motionless spot of laser light (˜25 μm in diameter) at the object plane. An illuminated section of the brain slice, projected onto the NeuroCCD camera, covered approximately 25 pixels when used with 40× objective lens. At this magnification, one pixel sampled a 4.8×4.8 square in the object plane. A region of interest (ROI) was brought into the laser spot using X-Y microscope platform. The laser beam was interrupted by an electro-programmable shutter (Uniblitz®). Attention was made to limit the exposure time during the recording and positioning of the neuron.
# [4] = system: layer V pyramidal neurons; assay: Toxicity / photodynamic damage: AP half-width during optical recording; conditions: Sprague-Dawley, rat
# Excerpt: S. Antic, G. Major, D. Zecevic, “Fast optical recordings of membrane potential changes from dendrites of pyramidal neurons”, Journal of Neurophysiology, 82, 1615-1621 (1999). Accumulation of reactive oxygen species (free radicals), which interact with and damage neuronal plasmalemma, is the most likely mechanism. J. B. Feix, B. Kalyanaraman, “Production of singlet oxygen-derived hydroxyl radical adducts during merocyanine-540-mediated photosensitization: analysis by ESR-spin trapping and HPLC with electrochemical detection”, Archives of Biochemistry & Biophysics, volume 291, pages 43-51 (1991). High intensity illumination during optical recording sessions excites large number of membrane bound dye molecules. Since styryl dyes have tendency to penetrate deep into the lipid bilayers (E. Fluhler, V. G. Burnham, L. M. Loew, “Spectra, membrane binding, and potentiometric responses of new charge shift probes”, Biochemistry, 24, 5749-5755 (1985)), free radicals are produced literally inside the neuronal membrane. […] S. D. Antic, “Action potentials in basal and oblique dendrites of rat neocortical pyramidal neurons”, Journal of Physiology 550, 35-50 (2003). […] Since dye loading was always done at room temperature (21° C.) and re-patching at 34° C., we could not compare AP shape and size before and after dye loading. Therefore, in order to check the extent of dye toxicity we designed a group of experiments in which neurons were injected and incubated at 34° C. During the dye injection (loading phase), in regular time intervals (3-5 min) direct current pulses was used to slowly charge the membrane and trigger an AP (FIG. 14A). Identical current pulse was then applied at the end of dye loading phase, just before the electrode pull-out (FIG. 14B) and after the 50-90 min incubation period (FIG. 14C, re-patch). […] To avoid AP jitter in optical recordings we used shorter and stronger current pulses (FIG. 14D, E, F, insets). However, from time to time we returned to AP-testing current injection protocol (FIG. 14D, E), while keeping the count on the number of cumulative high-intensity light exposures (# sweeps). […] Additional experimental details can be found in Ping Yan, Aifang Xie, Meide Wei, and Leslie M. Loew, “Amino(oligo)thiophene-Based Environmentally Sensitive Biomembrane Chromophores”, Journal of Organic Chemistry, published on web Jul. 30, 2008.
# [5] = compared with unfluorinated PY-1261
# [6] = one photon, soybean multi-lamellar lipid vesicles
smiles,measurement,setting,value
CCN(CC)c1ccc(-c2ccc(/C=C(\F)c3cc[n+](CCC[N+](CC)(CC)CC)cc3)s2)s1 [PY-3008],absorbance extinction coefficient of dye-stained lipid vesicle suspensions,[1]; [5],increases
same,effect of fluorination on spectra,[1]; [5],shifts the spectra to the red
same,1PF Abs. Max,[1]; [6],565 nm
same,1PF Em. Max,[1]; [6],706 nm
same,1PF Change (ΔF/F-100 mv),[2],1.0E−001; 650/>715 ΔF/F-100 mv
same,half time for bleaching of dye-stained cells,dye-stained cells,increases the half time for bleaching
same,intensity of fluorescence of stained cells,dye-stained cells; confocal microscope,increases
"CCN(CC)c1ccc2cc(/C=C/C=C/c3cc[n+](CCC[N+](C)(C)C)c4ccccc34)ccc2c1.[Br-].[Br-] [JPW-4090, Di-2-ANBDQPQ]",Absorbance ethanol,[1]; ethanol,584 nm
same,Emission ethanol,[1]; ethanol,812 nm
same,Absorbance MLV,[1]; multilamellar lipid vesicles,526 nm
same,Emission MLV,[1]; multilamellar lipid vesicles,702 nm
same,Absorbance water,[1]; water,490 nm
same,polarity of optical signal at 532 nm excitation,[3],positive signals
same,polarity of optical signal at 658 nm excitation,[3],positive signals
same,optical signal amplitude of blue dye relative to red dye JPW-3028,[3]; FIG. 11,approximately 3 times
same,"AP-associated optical signal, single example (base line-to-peak)","[3]; FIG. 11, basal dendrite",17 % ΔF/F
same,dF/F at 633 nm,"[3]; backpropagating AP, basal dendrites 80-150 μm from soma, laser spot 633 nm, %",12.70 ± 3.59%
same,dF/F at 658 nm,"[3]; backpropagating AP, basal dendrites 80-150 μm from soma, laser spot 658 nm, %",11.03 ± 2.24%
same,voltage sensitivity compared with red dye,[3]; basal dendrites 80-150 μm from soma,better sensitivity than red dye JPW-3028
same,S/N ratio at 633 nm,[3]; laser spot 633 nm,5.48 ± 2.01
same,S/N ratio at 658 nm,[3]; laser spot 658 nm,6.93±1.88
same,"slope of linear fit, AP half-width versus cumulative sweeps",[4],0.0003
same,sweeps recorded per session on average,[4],114±67 sweeps
same,time since beginning of dye injection without AP broadening,[4],≥ 192 min
